Test results reported in patent US11980633B2, “Method for treating cancer using a combination of DNA-damaging agents and DNA-PK inhibitors” (Vertex Pharmaceuticals Incorporated, priority 2016, dated 2024).

Legend:
[1] = system: primary human hepatocellular carcinoma (HCC) tumor; assay: TCA: Compound B-1 with doxorubicin hydrochloride, primary HCC tumor; assay type: cell-based; details: tumor L090923, Liver
Protocol: (§1) In both studies, cell viability was assessed after 6 days in culture. Statistical analysis of the combination matrix was performed to assess whether synergy, additivity, or antagonism of the combination treatments were observed.
(§2) Materials: Primary patient samples (See Tables 16 and 17, below) were excised from mice when they reached 500 mg to 1000 mg in size and processed immediately, or after overnight shipment. Tumors were serially passaged by subcutaneous implantation of 50 mg to 150 mg fragments into the flanks of immunocompromised (nude) mice. Tumors were used within the first 5 or 7 passages.
Tumor Chemosensitivity Assay (TCA): Primary tumor samples were grown and serially passaged in immunocompromised mice. Tumors were mechanically dissociated into small fragments (1 mm to 2 mm) with scalpels in phosphate buffered saline (PBS or RPMI) and centrifuged at 200×g for 5 minutes at room temperature in 50 mL centrifuge tubes. Samples were resuspended in 10 mL of cell dissociation reagent and enzymatically digested with mechanical agitation for 1 to 3 hours at 37° C., 5% CO2 to a single cell suspension. Ten mL of complete RPMI-1640 media was added to the cell mixture and pipetted up and down 4 to 5 times. The mixture was then passed through a 70 μm or 100 μm mesh strainer to remove undigested tumor. […] Cells were diluted in Trypan blue, and viable cells that excluded the dye were counted. […]

[2] = system: primary human endometrial tumors (dissociated cells); assay: Tumor Chemosensitivity Assay (TCA): Compound B-2 with doxorubicin, primary endometrial tumors, viability after 6 days, Bliss; assay type: cell-based
Protocol: Specifically, one study described the combination of Compound B-2 and doxorubicin hydrochloride. In this study, a panel of primary human ovarian and endometrial tumors was dissociated and treated with Compound B-2 to determine the effectiveness of this selective DNA-PK inhibitor to enhance the activity of doxorubicin.
as §1, §2
Tumor Chemosensitivity Assay (TCA): Primary tumor samples were grown and serially passaged in immunocompromised mice. Tumors were mechanically dissociated into small fragments (1 mm to 2 mm) with scalpels in phosphate buffered saline (PBS or RPMI) and centrifuged at 200×g for 5 minutes at room temperature in 50 mL centrifuge tubes. […] Cells were diluted in Trypan blue, and viable cells that excluded the dye were counted. […]

CNC(=O)c1ccnc2c([C@H](C)CNc3cc(-c4cnc(C)nc4)ncn3)cccc12 [Compound B-1]
Average Bliss score [1]: 4

[2H]c1nc(C)nc([2H])c1-c1cc(NC[C@@H](C)c2cccc3c(C(=O)NC)ccnc23)ncn1 [Compound B-2]
Average Bliss score ([2]; tumor ENX001 (Endometrial)): 6 | Average Bliss score ([2]; tumor ENX005 (Endometrial)): 21
